The assay concerns the target alkaline phosphatase (ALP). Put plainly: fluorescence enzyme inhibition assay with compd. […] as substrate. Type of assay: biochemical.

Broadly, the IC50 is the midpoint of a concentration-inhibition curve.

Molecule `[O]=[V]([OH])([OH])[OH]` [sodium orthovanadate] had a half-maximal inhibitory concentration (IC50) of 10.2 µM.

The values are drawn from publication PMC12400448 (Chemical Science, 2025).
